Assay results: patent publication US20250171744A1, “METHODS OF REPROGRAMMING SOMATIC CELLS AND MATERIALS RELATED THERETO” (CITY OF HOPE, priority 2019, published 2025)
“Also recorded” adds a separate entry of the source.

Key:
[1] = system: MTX/PTX treated and SSEA4 positive cells; assay: Cardiomyocyte marker expression in cardiomyocytes differentiation medium (FIG. 31); assay type: cell-based, human
Experimental: MTX/PTX treated and SSEA4 positive cells were maintained on Matrigel-coated 6-well plates in mTeSR1 medium. To induce differentiation, cells with EB-like morphology were dissociated with Accutase (Invitrogen) at 37° C. for 5 minutes and then single cell suspension was seeded onto a Matrigel-coated cell-culture dish at 100,000 cell/cm^2 in mTeSR1 supplemented with 5 μM ROCK inhibitor (Y-27632) for 24 hours. The cells then were cultured in mTeSR1 medium, which was changed daily. Next, 8 μl of 36 mM CHIR99021 were added into 24 ml RPMI/B27-insulin medium to make 12 μM CHIR99021 RPMI/B27-insulin medium and 2-ml of this were added to each well after the old mTeSR1 medium was removed. Exactly 24 hours after adding CHIR, the medium was replaced with 2 ml room temperature RPMI/B27-insulin. The plate was put back into the 37° C., 5% CO2 incubator. 72 hours post addition of CHIR99021, 1 ml medium from each well was removed and the remaining 1-ml was supplemented with 1-ml RPMI/B27-insulin with 5 μM IWP2 (WNT pathway inhibitor). After 48 hours, the medium was replaced with fresh RPMI/B27-insulin and this was incubated at 37° C., 5% CO2 incubator. After this, every 2-days, the old medium was removed from each well of the 12-well plate and 2 ml/well room temperature RPMI/B27 medium was added and incubated at 37° C., 5% CO2. Spontaneous contraction should occur by day 14 and spontaneous beating can be maintained for several weeks. […] The expression of the key cardiomyocyte markers, Nkx2, which is an early cardiac transcriptional factor, indicative of cardiac progenitor phenotype, and cTNT, which is cardiac troponin T, a muscle contractility regulatory protein, indicative of a mature cardiac phenotype, were tested.

[2] = system: human fibroblast (HF57) cells; assay: Immunofluorescence of pluripotency surface markers (FIG. 25, 26); assay type: cell-based; settings: for SSEA-4 and TRA 1-60 surface markers immunofluorescence: 1 μM for 7 days, DMEM with low methionine (15 mg/L)
Experimental: Post MTX treatment, the cells were labeled using primary antibodies (ant-SSEA4-anti mouse IgG3) followed by secondary antibodies conjugated to Alexa Fluor 488 goat anti-mouse IgG3. The cells were counterstained with DAPI. […] The cells were grown in regular DMEM medium with or without MTX. Scale Bar=400 μM.
Post MTX treatment, the cells were labeled using primary antibodies (anti-SSEA4-anti mouse IgG3 and anti-TRA 1-60 host-rabbit) followed by secondary antibodies conjugated to (Alexa Fluor 488 goat anti-mouse IgG3 and Alexa Fluor 594 donkey anti-rabbit). The cells were counterstained with DAPI. […] The cells were grown in DMEM medium with low methionine (15 mg/L). Scale Bar=400 μM (FIG. 26A); Scale Bar=200 μM (FIG. 26B).
Immunofluorescence analysis: The relative optimal image-based analysis of 2 key human pluripotent stem cells markers [octamer-binding transcription factor 4 (OCT4) and stage-specific embryonic antigen 4 (SSEA4)] was performed using the Pluripotent Stem Cell Immunocytochemistry Kit (Thermo Fisher Scientific) according to the manufacturer's instructions. Briefly, the cells were grown in 10% FBS DMEM supplemented with NEAAs and Glutamax in wells coated with 0.1% gelatin. For immunofluorescence localization, the cells were stained for SSEA4 and Oct4 and counterstained with DAPI using the kit (Thermo Fisher Scientific). The endogenous proteins were labeled using primary antibodies (anti-SSEA4 anti-mouse IgG3 and anti-OCT4 host-rabbit) followed by secondary antibodies conjugated to Alexa Fluor 488 goat anti-mouse IgG3 and Alexa Fluor 594 donkey anti-rabbit.
The quiescent nature of the MTX and PTX cells and the association of demethylation with the generation of induced pluripotent stem cells led to examining markers for stem cells formation. The 293T and HF57 cells were grown on 5% dialyzed FBS DMEM medium. DMEM without methionine, DMEM with 15 mg/L (half dose) and DMEM with 30 mg/L (regular DMEM) were used to grow the cells. […] Subsequently, the cells were assessed for markers linked to stem cells. […]

[3] = Cell viability after MTX or PTX treatment (FIG. 17); assay type: cell-based; settings: human; for viability: post MTX or PTX treatment; for viability at 5 days: HEK293T cells, after 5-days of MTX or PTX treatment, read-out: viable cells
Experimental: Call quantification, imaging, and statistical analysis: Cells were quantified using a Cellometer Auto T4 counting chamber after mixing in a 1:1 ratio with Trypan blue (MilliporeSigma) to exclude dead cells. The average of 2 separate counts was taken to calculate the cell numbers. All live cell imaging was conducted using an EVOS FL Auto microscope (Thermo Fisher Scientific). All statistical analysis was performed using a paired Student's t test with Bonferroni correction or 1-sample Student's t test. Values of P<0.05 were considered significant.

HF57 = assay: Embryoid body formation from SSEA4 positive sorted cells (FIG. 27); assay type: cell-based, human; settings: treated 7 or more days, low methionine, mTeSR Plus + HT, after 15-days
Experimental: HEK293T and HF57 were treated with MTX and PTX for 7 or more days in low methionine condition. SSEA4 positive cells were sorted using cell sorter and maintained on mTeSR™ Plus medium supplemented with HT.

HF57 cells = assay: Transcriptomics (RNAseq) of MTX and PTX treated cells (FIG. 20); assay type: cell-based, human; settings: for pluripotency markers significantly enriched: compared to controls
Description: RNAseq data validated that application of MTX and PTX affected C1 metabolism in the treated cells. […] The global transcriptional change across the groups compared was visualized by a volcano plot (FIGS. 20A-20B). Each data point in the scatter plot represents a gene. The log 2 fold change of each gene is represented on the x-axis and the log 10 of its adjusted p-value is on the y-axis. Genes with an adjusted p-value less than 0.05 and a log 2 fold change greater than 1 are indicated by red dots. […] Genes with an adjusted p-value less than 0.05 and a log 2 fold change less than −1 are indicated by green dots. […] Heat map visualization of the selected 67 differentially expressed genes. Original values are ln(x)-transformed. Rows are centered; unit variance scaling is applied to rows. Red indicates higher expression, whereas low expression indicated in green (FIG. 20C). For visual clarity, expression of selected genes is presented in groups based on their relative values (FIG. 20D).
The quiescent nature of the MTX and PTX cells and the association of demethylation with the generation of induced pluripotent stem cells led to examining markers for stem cells formation. The 293T and HF57 cells were grown on 5% dialyzed FBS DMEM medium. DMEM without methionine, DMEM with 15 mg/L (half dose) and DMEM with 30 mg/L (regular DMEM) were used to grow the cells. Once the cells attained 70% confluency, HF57 were treated with 1-μM MTX or PTX and HEK293T were treated with 500 nM MTX or 1 μM PTX. The cells were treated with MTX or PTX for 7-days, and subsequently the medium was replaced with N2B27 medium (Thermo Fisher Scientific, USA). The cells were grown in N2B27 medium for 15 days which supported undifferentiated growth of human embryonic stem cells. Subsequently, these cells were maintained in MTeSR medium supplemented with sodium hypoxanthine and thymidine (HT) for 15 or more days. These conditions supported prolonged self-renewal of putative pluripotent cells, and they were able to form colonies and later embryoid bodies in vitro. Subsequently, the cells were assessed for markers linked to stem cells. Transcriptomics and qRT-PCR were performed to examine whether ES cell marker genes were expressed in these cells. Both MTX and PTX treated cells expressed the marker genes (FIGS. 20-21 and 25-26). […] To authenticate these findings, two key pluripotency markers (SSEA-4 and TRA 1-60) were examined using immunofluorescence.

Row | Compound | expression of Nkx2 [1] | expression of cTNT [1] | SSEA-4 surface antigen immunofluorescence ([2]; 1 μM for 9-days, regular DMEM, no signals in control cells) | SSEA-4 and TRA 1-60 surface markers immunofluorescence [2] | viability ([3]; HDF fibroblast cell line) | viability at 5 days [3] | viability ([3]; HF57 fibroblast cell line) | embryoid body formation (HF57) | LIN28A enrichment compared to controls (HF57 cells) | NANOG enrichment compared to controls (HF57 cells) | SOX2 enrichment compared to controls (HF57 cells) | one carbon-metabolism and DNA methylation related genes significantly down-regulated (HF57 cells) | one carbon-metabolism and DNA methylation related genes upregulated (HF57 cells) | pluripotency markers significantly enriched (HF57 cells)
1 | CN(Cc1cnc2nc(N)nc(N)c2n1)c1ccc(C(=O)N[C@@H](CCC(=O)O)C(=O)O)cc1 [MTX, methotrexate] | significantly up-regulated | significantly up-regulated | expression of SSEA-4 surface antigens | high levels of SSEA-4 and TRA 1-60; also recorded: expression of SSEA-4 and TRA 1-60 surface antigens | 60 to 75% | 20 to 25% | 60 to 75% | start forming embryoid bodies | 6 fold | 6 fold | 5 fold | about 41 genes | 9 genes | about 50
2 | Nc1nc2[nH]cc(CCc3ccc(C(=O)N[C@@H](CCC(=O)O)C(=O)O)cc3)c2c(=O)[nH]1 [PTX, pemetrexed] | significantly up-regulated | significantly up-regulated | – | expression of SSEA-4 and TRA 1-60 surface markers | 60 to 75% | 20 to 25% | 60 to 75% | start forming embryoid bodies | 6 fold | 6 fold | 5 fold | about 41 genes | 9 genes | about 50
